Test results from patent US12624027B2, “Salts and polymorphic forms of 6-chloro-7-(4-(4-chlorobenzyl)piperazin-1-yl)-2-(1,3-dimethyl-1H-pyrazol-4-yl)-3H-imidazo[4,5-b]pyridine” (ELLIPSES PHARMA LTD, priority 2020, dated 2026).
“Also recorded” adds a separate entry of the source. Counter-ions that a name gives are not always drawn. Like-named read-outs stand apart in the source and are kept apart here.

Experiments:
Format in all cases: physicochemical
[1] = Aqueous solubility of Compound A salts (salt assessment)
Description: The mono-mesylate, di-mesylate, mono-hydrochloride, di-hydrochloride and fumarate salts of Compound A were assessed for compliance with the following properties identified by the inventors as being relevant to pharmaceutical suitability:
Aqueous solubility was determined by weighing out ˜3 mg of the salt form into a clean HPLC vial, adding HPLC grade water, shaking, vortexing, and/or sonicating to mix and aid dissolution as necessary. Once fully dissolved (clear solution) solubility is calculated based on the amount of water added. HPLC purity and DVS can be determined using methods described herein or methods known in the art. Processability is based on solubility of the salt form in certain excipients. Automated elemental analysis can be performed with 10 mg of the Compound A salt, using caffeine as a reference material. CHNX and the stoichiometry of the salt to the Compound A is determined. Dissolution was determined across 4 pH values (2.0, 3.8, 5.3, 7.2) using a Sirius T3 module, SOP 2070 and 2071, with 5 to 10 mg of Compound A salt compressed into a tablet disc.

[2] = Dynamic vapour sorption (DVS), hygroscopicity; details: for form change, hydration or dehydration after DVS (XRPD of recovered solids): after sorption/desorption cycles; for DVS uptake (weight increase): 25° C.
Description: Approximately, 10-20 mg of sample was placed into a mesh vapor sorption balance pan and loaded into a DVS Intrinsic dynamic vapour sorption balance by Surface Measurement Systems. The sample was subjected to a ramping profile from 40-90% relative humidity (RH) at 10% increments, maintaining the sample at each step until a stable weight had been achieved (dm/dt 0.004%, minimum step length 30 minutes, maximum step length 500 minutes) at 25° C. After completion of the sorption cycle, the sample was dried using the same procedure to 0% RH and then a second sorption cycle back to 40% RH. Two cycles were performed. The weight change during the sorption/desorption cycles were plotted, allowing for the hygroscopic nature of the sample to be determined. XRPD analysis was then carried out on any solid retained.

[3] = Stability of Form 1 on storage (appearance, HPLC, water content, XRPD)
Description: The stability of Form 1 was tested for compliance with the following stability acceptance criteria:
Form 1 was prepared as described in Example X above. The following amounts of Form 1 were weighed into 30 ml HDPE Nalgene containers:
Each container was placed into a small grip-seal bag and incubated at the conditions above.
Visual appearance and purity by HPLC were assessed periodically (at 0, 1, 3, 6, 9, 12, and 24 months). Water content was assessed at 0, 1, 6, and 12 months by Karl Fisher titration and TGA. XRPD spectra were taken at 0, 1, 3 and 6 months.

[4] = Stability of the crystalline form in organic solvents and on handling (XRPD)
Description: XRPD analysis was carried out on a PANalytical X'pert pro with PIXcel detector (128 channels), scanning the samples between 3 and 35° 2θ. The material was gently ground to release any agglomerates and loaded onto a multi-well plate with Kapton or Mylar polymer film to support the sample. The multi-well plate was then placed into the diffractometer and analyzed using Cu K radiation (α1 λ=1.54060 Å; α2=1.54443 Å; β=1.39225 Å; α1:α2 ratio=0.5) running in transmission mode (step size 0.01300 2θ, step time 18.87 s) using 40 kV/40 mA generator settings. Data were visualized and images generated using the HighScore Plus 4.7 desktop application (PANalytical, 2017).
A slurry of Compound A fumarate lyophile is prepared by adding aliquots of solvent to the lyophile until a mobile slurry was observed. Solvents and volumes can be found in Table 1 below. The slurries are temperature cycled with agitation, between ambient (ca. 25° C.) and 40° C. in 4-hour cycles over 72 hours. Post-temperature cycling the samples were filtered via centrifugation. Isolated solids can be analysed by XRPD.

[5] = Thermodynamic solubility assessment in biological media (FaSSIF, FeSSIF, FaSSGF), HPLC of mother liquors
Description: The thermodynamic solubility of Compound A free base, Compound A fumarate Form 1 and Compound A hemi-fumarate Form 3 was assessed in 3 biological media: Fasted State Simulated Intestinal Fluid (FaSSIF); Fed State Simulated Intestinal Fluid (FeSSIF) and Fasted State Simulated Gastric Fluid (FaSSGF).
The following procedure was carried out. Approximately 10 mg of material was weighed into 3×1.5 mL glass vials. 0.02 mL aliquots of appropriate buffer were added to each vial until a final concentration of 10 mg/mL was obtained. The samples were then filtered via centrifugation and the mother liquors analyzed by HPLC.

[6] = 1-week stability study of Form 3 (XRPD and HPLC)
Description: The stability of Compound A fumarate Form 3 was assessed under ambient and stressed conditions. The following procedure was carried out. Approximately 20 mg of material was added to 3×1.5 mL glass vials. The vials were then stored under the following conditions: • Ambient light and temperature (closed vial) • 40° C./75% RH (open vial) • 80° C. (closed vial)
After 1 week the samples were collected and analyzed by XRPD and HPLC.

[7] = Long term-storage stability of Form 7
[8] = Ambient light and temperature (closed vial)

SMILES: Cc1nn(C)cc1-c1nc2c(N3CCN(Cc4ccc(Cl)cc4)CC3)c(Cl)cnc2[nH]1 [Compound A fumarate, 6-chloro-7-(4-(4-chlorobenzyl)piperazin-1-yl)-2-(1,3-dimethyl-1H-pyrazol-4-yl)-3H-imidazo[4,5-b]pyridine]
- solubility ([1]; HPLC grade water, water, thermodynamic from solid): 50 to 4000 µg/mL
- hygroscopicity (in words) ([2]; listed as fumarate salt): unexpectedly low hygroscopicity
- hygroscopicity (in words) ([2]; listed as fumarate salt of Compound A): only slightly hygroscopic

SMILES: Cc1nn(C)cc1-c1nc2c(N3CCN(Cc4ccc(Cl)cc4)CC3)c(Cl)cnc2[nH]1 [Compound A mesylate, 6-chloro-7-(4-(4-chlorobenzyl)piperazin-1-yl)-2-(1,3-dimethyl-1H-pyrazol-4-yl)-3H-imidazo[4,5-b]pyridine]
- solubility compared to the free base of Compound A ([1]; aqueous): unexpectedly large increase in solubility

SMILES: Cc1nn(C)cc1-c1nc2c(N3CCN(Cc4ccc(Cl)cc4)CC3)c(Cl)cnc2[nH]1 [Form 1, 6-chloro-7-(4-(4-chlorobenzyl)piperazin-1-yl)-2-(1,3-dimethyl-1H-pyrazol-4-yl)-3H-imidazo[4,5-b]pyridine]
- changes in XRPD / form on storage ([3]; 0, 1, 3 and 6 months, ambient and accelerated conditions): no significant changes; also recorded: no changes in XRPD
- levels of impurities (HPLC) ([3]; 5° C., 25° C./60% RH, 40° C./75% RH, 55° C., over 24 months): ≤ 0.6%
- water content ([3]; after 12 months, Karl Fisher titration and TGA): below the limit of quantification
- changes in mass ([3]; storage at 5° C., 25° C./60% RH, 40° C./75% RH, 55° C.): negligible
- change in form upon exposure to organic solvents (XRPD) ([4]; 1-butanol, 1-propanol, 2-ethoxyethanol, acetone, acetonitrile, MEK, THF, 1,1-dimethoxymethane, or DMSO): no change in form
- Concentration (thermodynamic solubility) ([5]; FaSSGF pH 1.6, listed as Compound A fumarate form 1): 3400 µg/mL
- Concentration (thermodynamic solubility) ([5]; FaSSIF pH 6.5, listed as Compound A fumarate form 1): insoluble; also recorded: Below LOD
- Concentration (thermodynamic solubility) ([5]; FeSSIF pH 5.0, listed as Compound A fumarate form 1): 300 µg/mL
- form change, hydration or dehydration after DVS (XRPD of recovered solids) [2]: No evidence of form change
- DVS uptake as equivalents of water ([2]; at 90% RH): 0.07 equivalents of water
- DVS uptake (weight increase) ([2]; at 90% RH): 0.7 wt. %

SMILES: Cc1nn(C)cc1-c1nc2c(N3CCN(Cc4ccc(Cl)cc4)CC3)c(Cl)cnc2[nH]1 [Form 3, 6-chloro-7-(4-(4-chlorobenzyl)piperazin-1-yl)-2-(1,3-dimethyl-1H-pyrazol-4-yl)-3H-imidazo[4,5-b]pyridine]
- change in form on handling in organic solvents (XRPD) ([4]; dimethoxymethane, 2-MeTHF, water:MeOH, EtOAc, IPA, MEK, MIBK, THF, acetone, acetonitrile): without change in form
- Concentration (thermodynamic solubility) ([5]; FaSSGF pH 1.6, listed as Compound A fumarate form 3): 2000 µg/mL
- Concentration (thermodynamic solubility) ([5]; FaSSIF pH 6.5, listed as Compound A fumarate form 3): <100 µg/mL
- solubility thermodynamic ([5]; FaSSIF, pH 6.5, fassif, thermodynamic from solid, FaSSIF pH 6.5, read-out: Concentration (thermodynamic solubility)): < 100 µg/mL
- Concentration (thermodynamic solubility) ([5]; FeSSIF pH 5.0, listed as Compound A fumarate form 3): <100 µg/mL
- Purity (% area) after storage ([6]; 40° C./75% RH (open vial)): 99.5 % area
- XRPD form after storage ([6]; 40° C./75% RH (open vial)): Form 3
- Purity (% area) after storage ([6]; 80° C. (closed vial)): 99.6 % area
- XRPD form after storage ([6]; 80° C. (closed vial)): Form 3
- Purity (% area) after storage [6, 8]: 99.6 % area
- XRPD form after storage [6, 8]: Form 3
- changes in purity after storage ([6]; all three storage conditions): No changes in purity
- visual changes after storage ([6]; all three storage conditions): No visual changes
- form change, hydration or dehydration after DVS (XRPD of recovered solids) [2]: No evidence of hydration or dehydration
- DVS uptake (weight increase) ([2]; at 90% RH): ca. 0.5 wt. %

SMILES: Cc1nn(C)cc1-c1nc2c(N3CCN(Cc4ccc(Cl)cc4)CC3)c(Cl)cnc2[nH]1 [Form 7, 6-chloro-7-(4-(4-chlorobenzyl)piperazin-1-yl)-2-(1,3-dimethyl-1H-pyrazol-4-yl)-3H-imidazo[4,5-b]pyridine]
- change in form on handling in organic solvents (XRPD) ([4]; methanol and TBME): without any change in form
- stability under long term-storage conditions [7]: stable
- hygroscopicity (in words) [2]: only slightly hygroscopic
